# According to ChEMBL document CHEMBL1135926, “Structure-based design of novel potent nonpeptide thrombin inhibitors” (J Med Chem, 2002):
# Target: Tissue-type plasminogen activator (Homo sapiens, UniProt P00750)
# Assay: Inhibitory constant (Ki) was determined against human Tissue plasminogen activator (tissue plasminogen activator)
# Sequence of Tissue-type plasminogen activator (P00750 whole entry): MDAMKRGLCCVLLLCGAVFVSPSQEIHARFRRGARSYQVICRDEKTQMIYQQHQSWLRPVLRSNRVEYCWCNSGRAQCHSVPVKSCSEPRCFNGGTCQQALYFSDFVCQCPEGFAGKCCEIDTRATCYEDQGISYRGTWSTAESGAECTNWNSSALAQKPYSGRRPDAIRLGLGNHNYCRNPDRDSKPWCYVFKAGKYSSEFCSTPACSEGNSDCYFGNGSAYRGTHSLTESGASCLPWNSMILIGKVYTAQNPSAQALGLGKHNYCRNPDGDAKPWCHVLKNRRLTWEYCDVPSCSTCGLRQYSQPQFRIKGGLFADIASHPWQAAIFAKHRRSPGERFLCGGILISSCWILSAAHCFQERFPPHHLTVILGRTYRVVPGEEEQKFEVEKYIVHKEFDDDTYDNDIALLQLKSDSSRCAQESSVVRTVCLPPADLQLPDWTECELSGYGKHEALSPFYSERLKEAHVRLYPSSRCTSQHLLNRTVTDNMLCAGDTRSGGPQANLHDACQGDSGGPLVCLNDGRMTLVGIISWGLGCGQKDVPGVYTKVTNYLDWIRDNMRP
row,SMILES,Ki [nM]
1,Cn1c(CNc2ccc(C(=N)N)cc2)nc2cc(C(=O)N(CCC(=O)O)c3ccccn3)ccc21 [DABIGATRAN],45400

# Target: Trypsin (Homo sapiens, UniProt P07477+P07478+P35030)
# Assay: Inhibitory constant (Ki) was determined against human trypsin
# Assay type: protein assay
row,SMILES,Ki [nM]
1,Cn1c(CNc2ccc(C(=N)N)cc2)nc2cc(C(=O)N(CCC(=O)O)c3ccccn3)ccc21 [DABIGATRAN],50.3

# Target: Vitamin K-dependent protein C (Homo sapiens, UniProt P04070)
# Assay: Inhibitory constant (Ki) was determined against human Activated protein C
# Sequence of Vitamin K-dependent protein C (P04070 43-197 limits assumed): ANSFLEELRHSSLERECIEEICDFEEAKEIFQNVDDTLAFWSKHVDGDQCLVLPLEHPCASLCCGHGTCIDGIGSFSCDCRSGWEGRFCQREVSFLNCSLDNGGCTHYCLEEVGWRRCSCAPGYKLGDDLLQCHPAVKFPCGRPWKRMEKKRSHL
# Sequence of Vitamin K-dependent protein C (P04070 212-461 limits assumed): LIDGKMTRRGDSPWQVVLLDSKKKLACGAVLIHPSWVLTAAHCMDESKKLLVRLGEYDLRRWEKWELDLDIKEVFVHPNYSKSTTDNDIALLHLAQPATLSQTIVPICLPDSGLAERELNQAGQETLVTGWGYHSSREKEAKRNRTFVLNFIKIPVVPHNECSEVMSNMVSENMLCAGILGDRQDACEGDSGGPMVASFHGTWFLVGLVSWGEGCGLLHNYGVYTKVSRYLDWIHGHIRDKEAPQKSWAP
row,SMILES,Ki [nM]
1,Cn1c(CNc2ccc(C(=N)N)cc2)nc2cc(C(=O)N(CCC(=O)O)c3ccccn3)ccc21 [DABIGATRAN],20900

# Organism: Homo sapiens
# Assay: Effective dose was determined against human plasma using PTT reagent
# Assay type: functional
row,SMILES,ED2 [µM]
1,Cn1c(CNc2ccc(C(=N)N)cc2)nc2cc(C(=O)N(CCC(=O)O)c3ccccn3)ccc21 [DABIGATRAN],0.23

# Target: Plasminogen (Homo sapiens, UniProt P00747)
# Assay: Inhibitory constant (Ki) was determined against human plasmin
# Sequence of Plasminogen (P00747 97-580 limits assumed): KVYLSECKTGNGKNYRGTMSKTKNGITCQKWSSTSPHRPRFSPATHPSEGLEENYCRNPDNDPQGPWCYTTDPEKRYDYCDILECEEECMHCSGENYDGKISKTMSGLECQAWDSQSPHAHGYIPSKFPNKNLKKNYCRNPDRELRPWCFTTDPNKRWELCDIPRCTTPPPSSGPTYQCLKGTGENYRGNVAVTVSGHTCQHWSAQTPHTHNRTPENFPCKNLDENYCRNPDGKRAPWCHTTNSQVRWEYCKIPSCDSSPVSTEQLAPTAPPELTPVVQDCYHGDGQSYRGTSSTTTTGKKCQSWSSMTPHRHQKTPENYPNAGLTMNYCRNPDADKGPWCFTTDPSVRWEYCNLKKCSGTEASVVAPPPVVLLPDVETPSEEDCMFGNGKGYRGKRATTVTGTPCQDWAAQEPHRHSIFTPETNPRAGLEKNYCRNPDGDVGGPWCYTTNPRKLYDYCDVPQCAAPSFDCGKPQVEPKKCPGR
# Sequence of Plasminogen (P00747 581-810 limits assumed): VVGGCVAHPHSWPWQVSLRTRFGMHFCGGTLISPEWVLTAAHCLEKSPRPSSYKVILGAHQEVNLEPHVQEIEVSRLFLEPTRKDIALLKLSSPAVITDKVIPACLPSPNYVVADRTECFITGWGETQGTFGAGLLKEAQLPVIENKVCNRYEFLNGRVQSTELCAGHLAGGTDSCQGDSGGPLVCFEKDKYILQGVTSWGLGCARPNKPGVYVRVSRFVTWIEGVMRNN
row,SMILES,Ki [nM]
1,Cn1c(CNc2ccc(C(=N)N)cc2)nc2cc(C(=O)N(CCC(=O)O)c3ccccn3)ccc21 [DABIGATRAN],1690

# Target: Prothrombin (Homo sapiens, UniProt P00734)
# Assay: Inhibition of human thrombin by chromogenic assay
row,SMILES,IC50 [nM]
1,Cn1c(CNc2ccc(C(=N)N)cc2)nc2cc(N(CC(=O)O)S(=O)(=O)c3cccc4cccnc34)ccc21,11
2,Cn1c(Cc2ccc(C(=N)N)cc2)nc2cc(NS(=O)(=O)c3ccc4ccccc4c3)ccc21,24000
3,Cn1c(CCc2ccc(C(=N)N)cc2)nc2cc(C(=O)N(CC(=O)O)c3ccccc3)ccc21,54
4,Cn1c(Cc2ccc(C(=N)N)cc2)nc2cc(N(CCCC(=O)O)S(=O)(=O)c3cccc4cccnc34)ccc21,130
5,Cn1c(Cc2ccc(C(=N)N)cc2)nc2cc(NS(=O)(=O)c3cccnc3)ccc21,1600
6,Cn1c(Cc2ccc(C(=N)N)cc2)nc2cc(NS(=O)(=O)c3cccc4ccccc34)ccc21,600
7,COc1ccc(OC)c(S(=O)(=O)Nc2ccc3c(c2)nc(Cc2ccc(C(=N)N)cc2)n3C)c1,1800
8,Cn1c(CCc2ccc(C(=N)N)cc2)nc2cc(N(CC(=O)O)S(=O)(=O)c3cccc4cccnc34)ccc21,32
9,Cn1c(Cc2ccc(C(=N)N)cc2)nc2cc(NS(=O)(=O)c3cccc4cccnc34)ccc21,260
10,Cn1c(Cc2ccc(C(=N)N)cc2)nc2cc(N(CC(=O)O)S(=O)(=O)c3cccc4cccnc34)ccc21,120
11,CCCn1c(Cc2ccc(C(=N)N)cc2)nc2cc(NS(=O)(=O)c3ccccc3)ccc21,4000
12,Cn1c(CNc2ccc(C(=N)N)cc2)nc2cc(C(=O)N(CCC(=O)O)c3ccccc3)ccc21,5.4
13,Cn1c(Cc2ccc(C(=N)N)cc2)nc2cc(NS(=O)(=O)c3cc(C(F)(F)F)cc(C(F)(F)F)c3)ccc21,> 100000
14,CCn1c(Cc2ccc(C(=N)N)cc2)nc2cc(NS(=O)(=O)c3ccccc3)ccc21,2400
15,Cn1c(CNc2ccc(C(=N)N)cc2)nc2cc(C(=O)N(CC(=O)O)c3ccccc3)ccc21,10
16,N=C(N)c1ccc(Cc2nc3cc(NS(=O)(=O)c4ccccc4)ccc3[nH]2)cc1,19000
17,Cn1c(COc2ccc(C(=N)N)cc2)nc2cc(C(=O)N(CC(=O)O)c3ccccc3)ccc21,330
18,Cn1c(CNc2ccc(C(=N)N)cc2)nc2cc(C(=O)N(CCCC(=O)O)c3ccccc3)ccc21,10
19,CN(c1ccc2c(c1)nc(Cc1ccc(C(=N)N)cc1)n2C)S(=O)(=O)c1ccccc1,1300
20,Cn1c(Cc2ccc(C(=N)N)cc2)nc2cc(NS(=O)(=O)c3cccc4cnccc34)ccc21,510
21,Cn1c(COc2ccc(C(=N)N)cc2)nc2cc(N(CC(=O)O)S(=O)(=O)c3cccc4cccnc34)ccc21,58
